From US20140039171A1, “NOVEL MACROLIDE INTERMEDIATE AND NOVEL PRODUCTION PROCESS” (MEIJI SEIKA PHARMA CO., LTD., priority 2011, published 2014)
≈ marks a conversion by molar mass, not a printed value.

Experiments:
Assay in all cases: in vitro antibacterial activity, broth microdilution method (CLSI M31-A2), MIC
Assay type in all cases: cell-based
H. somni = test system: H. somni
Description: (§1) The compound obtained in the present invention was measured for its in vitro antibacterial activity by a broth microdilution method in accordance with a CLSI method (formerly NCCLS method, […]-A2) (Performance Standards for Antimicrobial Disk and Dilution Susceptibility Tests for Bacteria Isolated from Animals; Approved Standard-Second Edition NCCLS […]-A2 Vol. 22 No. 6 2002). A medium composition used in the measurement is shown below. […] The resultant test drug solution was further subjected to two-step dilution with the liquid medium shown below to prepare a test drug solution at each concentration level. The thus prepared test drug solution at each concentration level was dispensed into a 96-well microplate at 100 μL/well, and a test bacterial strain was inoculated at about 5×10^4 CFU/well. After having been cultured in the presence of 5% CO2 gas at 37° C. for 20 to 24 hours, the test bacterial strain was visually observed for the presence or absence of its growth. A minimum drug concentration completely inhibiting the growth of the test bacterial strain was defined as a minimum inhibitory concentration (hereinafter referred to as MIC). […] Saponin was dissolved with purified water. The solution was sterilized and then added to defibrinated horse blood.

A. pleuropneumoniae = test system: A. pleuropneumoniae
Description: as §1

P. multocida = test system: P. multocida
Description: as §1

H. parasuis = test system: H. parasuis
Description: as §1

M. haemolytica = test system: M. haemolytica
Description: as §1

[1] = A. pleuropneumoniae strain 10895-2R
[2] = A. pleuropneumoniae strain 11684-7R
[3] = A. pleuropneumoniae strain 11796-1R
[4] = A. pleuropneumoniae strain 11804-2R
[5] = A. pleuropneumoniae strain ATCC27089
[6] = P. multocida (bovine) strain 11272R
[7] = P. multocida (bovine) strain 11325-1R
[8] = P. multocida (bovine) strain 11787-24R1
[9] = P. multocida (bovine) strain ATCC43019
[10] = P. multocida (swine) strain 11587-3R
[11] = P. multocida (swine) strain 11745-15R
[12] = P. multocida (swine) strain ATCC43137

Row | SMILES | MIC (H. somni; H. somni strain 11321R) | MIC (H. somni; H. somni strain 11423-3R) | MIC (A. pleuropneumoniae; [1]) | MIC (A. pleuropneumoniae; [2]) | MIC (A. pleuropneumoniae; [3]) | MIC (A. pleuropneumoniae; [4]) | MIC (A. pleuropneumoniae; [5]) | MIC (P. multocida; [6]) | MIC (P. multocida; [7]) | MIC (P. multocida; [8]) | MIC (P. multocida; [9]) | MIC (P. multocida; [10]) | MIC (P. multocida; [11]) | MIC (P. multocida; [12]) | MIC (H. parasuis; H. parasuis strain 11510-1-2R) | MIC (H. parasuis; H. parasuis strain 11640-1R) | MIC (M. haemolytica; M. haemolytica strain 11443R) | MIC (M. haemolytica; M. haemolytica strain 11467-2R)
1 | CCC(=O)OC1CC(=O)OC(C)CC(O)C(N(C)CCCc2ccnc3ccccc23)C=CC(OC(C)=O)C(C)CC(CC=O)C(OC2OC(C)C(O)C(N(C)C)C2O)C1OC (stereo not drawn) [(IIIa)] | 0.5 µg/mL (≈ 0.573 µM) | 1 µg/mL (≈ 1.15 µM) | 4 µg/mL (≈ 4.59 µM) | 16 µg/mL (≈ 18.3 µM) | 4 µg/mL (≈ 4.59 µM) | 4 µg/mL (≈ 4.59 µM) | 4 µg/mL (≈ 4.59 µM) | 4 µg/mL (≈ 4.59 µM) | 2 µg/mL (≈ 2.29 µM) | 4 µg/mL (≈ 4.59 µM) | 4 µg/mL (≈ 4.59 µM) | 4 µg/mL (≈ 4.59 µM) | 4 µg/mL (≈ 4.59 µM) | 2 µg/mL (≈ 2.29 µM) | 0.25 µg/mL (≈ 0.287 µM) | 2 µg/mL (≈ 2.29 µM) | 2 µg/mL (≈ 2.29 µM) | 4 µg/mL (≈ 4.59 µM)
2 | CO[C@@H]1C(OC2O[C@@H](C)C(O)C(N(C)C)C2O)[C@@H](CC=O)C[C@@H](C)[C@@H](OC(C)=O)/C=C/[C@@H](N(C)CCCc2ccnc3ccccc23)[C@@H](O)C[C@@H](C)OC(=O)C[C@H]1OC(C)=O (stereo partly drawn) [(IIIb)] | 0.5 µg/mL (≈ 0.583 µM) | 1 µg/mL (≈ 1.17 µM) | 4 µg/mL (≈ 4.66 µM) | 32 µg/mL (≈ 37.3 µM) | 4 µg/mL (≈ 4.66 µM) | 8 µg/mL (≈ 9.32 µM) | 4 µg/mL (≈ 4.66 µM) | 4 µg/mL (≈ 4.66 µM) | 2 µg/mL (≈ 2.33 µM) | 4 µg/mL (≈ 4.66 µM) | 4 µg/mL (≈ 4.66 µM) | 4 µg/mL (≈ 4.66 µM) | 4 µg/mL (≈ 4.66 µM) | 4 µg/mL (≈ 4.66 µM) | 0.5 µg/mL (≈ 0.583 µM) | 4 µg/mL (≈ 4.66 µM) | 4 µg/mL (≈ 4.66 µM) | 4 µg/mL (≈ 4.66 µM)
